Test: Liver enzymatic activity in serum (AlaT, AspaT, γGTP, ALP)
Assay type: in vivo, rats
Details: rat, 1 mg/kg/day i.p.; for activity of AlaT, AspaT, γGTP, ALP in serum: three-week administration
Protocol: The blood samples were collected immediately after decapitation and then centrifuged at 600× g […], 4 °C, to separate the plasma. The blood was used to determine metabolic parameters such as glucose, cholesterol, and triglyceride levels, together with liver enzymatic activity.
To determine alanine aminotransferase (AlaT), […] (AspaT), alkaline phosphatase (ALP), or gamma-glutamyl transpeptidase (γGTP) activities in the serum, a standard enzymatic spectrophotometric test (Biomaxima S.A., Lublin, Poland) was used. Absorbance was measured at a wavelength of 340 nm (AlaT, AspaT) or 405 nm (ALP, γGTP).

activity of AlaT, AspaT, γGTP, ALP in serum | γGTP activity in serum vs control (21 days) | SMILES
no significant changes |  | COc1cccc(N2CCN(CC3CCN(c4ncnc5cc(OC)c(OC)cc45)C3)CC2)c1 (stereo not drawn) [PQA-AZ4, 6,7-Dimethoxy-4-(3-((4-(3-methoxyphenyl)piperazin-1-yl)methyl)pyrrolidin-1-yl)quinazoline]
no significant changes | significantly lower | COc1cc2ncnc(N3CCC(CN4CCN(c5ccc(Cl)cc5)CC4)C3)c2cc1OC (stereo not drawn) [PQA-AZ6, 4-(3-((4-(4-Chlorophenyl)piperazin-1-yl)methyl)pyrrolidin-1-yl)-6,7-dimethoxyquinazoline]

— paper PMC9569954, “The Antidepressant-like Activity, Effects on Recognition Memory Deficits, Bioavailability, and Safety after Chronic Administration of New Dual-Acting Small Compounds Targeting Neuropsychiatric Symptoms in Dementia” (International Journal of Molecular Sciences, 2022)
